Where a name gives a salt, the structure may show the parent alone.
Legend:
[1] = target: T1, CCKB receptor (Mus musculus, UniProt P56481); assay: CCKB receptor radioligand binding assay in mouse cortical membranes; details: [125I]-CCK8(S) 200 pM, 150 min at 21±3°, read-out: CCKB pKi (converted)
T1 construct: The whole brains from male mice (CD1 22-25 g; Charles River) were removed; from tissue; host or cells: cerebral cortex membranes of male CD1 mice
T1 sequence (P56481 1-453): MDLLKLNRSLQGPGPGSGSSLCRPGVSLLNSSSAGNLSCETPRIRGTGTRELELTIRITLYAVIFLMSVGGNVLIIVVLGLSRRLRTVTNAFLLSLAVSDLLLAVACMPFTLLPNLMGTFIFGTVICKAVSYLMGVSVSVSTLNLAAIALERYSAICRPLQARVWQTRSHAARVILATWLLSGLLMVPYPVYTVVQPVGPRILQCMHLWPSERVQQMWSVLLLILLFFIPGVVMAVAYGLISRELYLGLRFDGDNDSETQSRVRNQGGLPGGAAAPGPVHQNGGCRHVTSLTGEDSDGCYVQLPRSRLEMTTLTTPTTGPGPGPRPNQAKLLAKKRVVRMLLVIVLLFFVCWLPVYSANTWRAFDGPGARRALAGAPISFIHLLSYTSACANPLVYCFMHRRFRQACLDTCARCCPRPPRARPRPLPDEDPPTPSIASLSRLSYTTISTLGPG
Procedure, shortened: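 Bound radioactivity was gamma-counted after rapid GF/B filtration and cold 50 mM Tris-HCl (pH 7.4) washes. The tissue was cerebral cortex from male CD1 mice, prepared as twice-centrifuged membranes in pH 7.2 HEPES/NaCl/KCl/MgCl2/EDTA buffer with bacitracin at 20 mg/ml original wet weight.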

[2] = target: T2, gastrin receptor (Rattus norvegicus, UniProt P30553); assay: gastrin antagonist activity in immature rat stomach assay (pentagastrin dose-response, acid secretion); details: isolated immature rat stomach, cumulative pentagastrin dose-response curves, read-out: Gastrin pKb (converted)
T2 construct: The stomach was excised and flushed with ca. 1 ml of unbuffered physiological saline solution; from tissue; host or cells: isolated whole stomach of immature rats (ca. 21 days old)
T2 sequence (P30553 1-452): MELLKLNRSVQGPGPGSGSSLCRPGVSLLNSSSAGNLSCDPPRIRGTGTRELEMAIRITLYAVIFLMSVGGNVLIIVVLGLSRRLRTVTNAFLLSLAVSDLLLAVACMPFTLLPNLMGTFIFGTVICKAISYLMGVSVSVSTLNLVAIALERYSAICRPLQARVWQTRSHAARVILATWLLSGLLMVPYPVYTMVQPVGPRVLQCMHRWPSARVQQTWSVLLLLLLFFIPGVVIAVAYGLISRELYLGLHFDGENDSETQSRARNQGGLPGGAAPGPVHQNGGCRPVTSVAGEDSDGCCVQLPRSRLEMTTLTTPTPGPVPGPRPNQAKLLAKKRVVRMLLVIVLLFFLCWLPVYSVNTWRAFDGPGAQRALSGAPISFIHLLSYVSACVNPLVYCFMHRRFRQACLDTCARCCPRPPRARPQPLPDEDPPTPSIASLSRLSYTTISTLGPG
Procedure, shortened: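 Gastrin antagonism was measured as the effect on cumulative pentagastrin dose-response curves of acid output, recorded by pH electrode in the perfusate of an excised immature rat stomach (ca. 21 days old). Test compound was placed in the serosal bath (37°, 3×10^−8 M 5-methylfurmethide) 60 min before pentagastrin.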

| SMILES | Ki [1] [nM] | Kb [2] [nM] |
| --- | --- | --- |
| O=C(O)c1cccc(NC(=O)c2nc(C3CC4C=CC3C4)[nH]c2CCC23CC4CC(CC(C4)C2)C3)c1 (racemic) [Example 117, (±)-exo-3-{[5-(2-Adamantan-1-yl-ethyl)-2-bicyclo[2.2.1]hept-5-ene-2-yl-1H-imidazole-4-carbonyl]-amino}-benzoic Acid] | 36.3 | 3.63 |
| Cc1ccccc1-c1nc(NC(=O)c2cccc(C(=O)O)c2)c(CCC23CC4CC(CC(C4)C2)C3)[nH]1 [Example 92, N-[5-(2-Adamantan-1-yl-ethyl)-2-o-tolyl-1H-imidazol-4-yl]-isophthalamic Acid] | 1020 | 158 |
| O=C(O)c1cccc(NC(=O)c2nc(C3CC4C=CC3C4)[nH]c2CCC23CC4CC(CC(C4)C2)C3)c1 (racemic) [Example 116, (±)-endo-3-{[5-(2-Adamantan-1-yl-ethyl)-2-bicyclo[2.2.1]hept-5-ene-2-yl-1H-imidazole-4-carbonyl]-amino}-benzoic Acid] | 13.5 | 2.14 |
| O=C(O)c1cccc(NC(=O)c2nc(-c3c(Cl)cccc3Cl)[nH]c2CCC23CC4CC(CC(C4)C2)C3)c1 [Example 148, 3-{[5-(2-Adamantan-1-yl-ethyl)-2-(2,6-dichlorophenyl)-1H-imidazole-4-carbonyl]-amino}-benzoic Acid] | 102 | 53.7 |
| CN1CCC[C@@H]1c1nc(C(=O)Nc2cccc(C(=O)O)c2)c(CCC23CC4CC(CC(C4)C2)C3)[nH]1 [Example 143] | 191 | 60.3 |
| CC12CC3CC(C)(C1)CC(CCc1[nH]c(C4CCCCC4)nc1C(=O)Nc1cccc(C(=O)O)c1)(C3)C2 [Example 174, 3-({2-Cyclohexyl-5-[2-(3,5-dimethyl-adamantan-1-yl)-ethyl]-1H-imidazole-4-carbonyl}-amino)-benzoic Acid] | 251 | 204 |
| Cc1ccc(NC(=O)c2nc(-c3ccco3)[nH]c2CCC23CC4CC(CC(C4)C2)C3)cc1C(=O)O [Example 187, 5-{[5-(2-Adamantan-1-yl-ethyl)-2-furan-2-yl-1H-imidazole-4-carbonyl]-amino}-2-methyl-benzoic Acid] | 60.3 | 75.9 |
| Cc1ccccc1-c1nc(C(=O)Nc2cccc(C(=O)O)c2)c(CCC2CCCCC2)[nH]1 [Example 89, 3-{[5-(2-Cyclohexyl-ethyl)-2-o-tolyl-1H-imidazole-4-carbonyl]-amino}-benzoic Acid] | 676 | 20 |
| Cc1ccc(NC(=O)c2nc(C3CCCCC3)[nH]c2CCC2C3CC4CC(C3)CC2C4)cc1C(=O)O (stereo not shown) [Example 173, 5-{[5-(2-Adamantan-2-yl-ethyl)-2-cyclohexyl-1H-imidazole-4-carbonyl]-amino}-2-methyl-benzoic Acid] | 6.17 | 4.79 |
| Cc1ccccc1-c1nc(CCC23CC4CC(CC(C4)C2)C3)c(C(=O)Nc2cccc(C(=O)O)c2)n1C [Example 74, 3-{[5-(2-Adamantan-1-yl-ethyl)-3-methyl-2-o-tolyl-3H-imidazole-4-carbonyl]-amino}-benzoic Acid] | 324 | 25.7 |
| Cc1ccc(NC(=O)c2nc(C(C)(C)C)[nH]c2CCC23CC4CC(CC(C4)C2)C3)cc1C(=O)O [Example 198, 5-{[5-(2-Adamantan-1-yl-ethyl)-2-tert-butyl-1H-imidazole-4-carbonyl]-amino}-2-methyl-benzoic Acid] | 8.71 | 8.13 |
| CCc1ccccc1-c1nc(C(=O)Nc2cccc(C(=O)O)c2)c(CCC23CC4CC(CC(C4)C2)C3)[nH]1 [Example 158, 3-{[5-(2-Adamantan-1-yl-ethyl)-2-(2-ethyl-phenyl)-1H-imidazole-4-carbonyl]-amino}-benzoic Acid] | 759 | 105 |
| Cc1ccc(NC(=O)c2nc(-c3ccc(F)cc3F)[nH]c2CCC23CC4CC(CC(C4)C2)C3)cc1C(=O)O [Example 152, 5-{[5-(2-Adamantan-1-yl-ethyl)-2-(2,4-difluoro-phenyl)-1H-imidazole-4-carbonyl]-amino}-2-methyl-benzoic Acid] | 10.5 | 11.5 |
| Cc1ccc(NC(=O)c2nc([C@@H]3CCCN3C)[nH]c2CCC23CC4CC(CC(C4)C2)C3)cc1C(=O)O [Example 138, (S)-5-{[5-(2-Adamantan-1-yl-ethyl)-2-(1-methyl-pyrrolidin-2-yl)-1H-imidazole-4-carbonyl]-amino}-2-methyl-benzoic Acid] | 50.1 | 25.7 |
| CC(C)(C)Cc1nc(C(=O)Nc2cccc(C(=O)O)c2)c(CCC23CC4CC(CC(C4)C2)C3)[nH]1 [Example 111, 3-{[5-(2-Adamantan-1-yl-ethyl)-2-(2,2-dimethyl-propyl)-1H-imidazole-4-carbonyl]-amino}-benzoic Acid] | 91.2 | 41.7 |
| Cc1ccccc1-c1nc(C(=O)Nc2ccc(N)c(C(=O)O)c2)c(CCC23CC4CC(CC(C4)C2)C3)[nH]1 [Example 241, 5-{[5-(2-Adamantan-1-yl-ethyl)-2-o-tolyl-1H-imidazole-4-carbonyl]-amino}-2-amino-benzoic Acid Dihydrochloride] | 60.3 | 4680 |
| Cc1ccc(NC(=O)c2nc(C3CC4CCC3C4)[nH]c2CCC23CC4CC(CC(C4)C2)C3)cc1C(=O)O (racemic) [Example 209, (±)-endo-5-{[5-(2-Adamantan-1-yl-ethyl)-2-bicyclo[2.2.1]hept-2-yl-1H-imidazole-4-carbonyl]-amino}-2-methyl-benzoic Acid] | 2.09 | 1.1 |
| Cc1ccccc1-c1nc(C(=O)NCC(=O)Nc2cccc(C(=O)O)c2)c(CCC23CC4CC(CC(C4)C2)C3)[nH]1 [Example 103] | 263 | 661 |
| O=C(O)c1cc(NC(=O)c2[nH]c(-c3ccccc3)nc2CCC23CC4CC(CC(C4)C2)C3)cc(C(=O)O)c1 [Example 46, 5-{[5-(2-Adamantan-1-yl-ethyl)-2-phenyl-1H-imidazole-4-carbonyl]-amino}-isophthalic Acid] | 646 | 2510 |
| CCCc1nc(C(=O)Nc2cccc(C(=O)O)c2)c(CCC23CC4CC(CC(C4)C2)C3)[nH]1 [Example 81, 3-{[5-(2-Adamantan-1-yl-ethyl)-2-propyl-1H-imidazole-4-carbonyl]-amino}-benzoic Acid] | 269 | 52.5 |
| Cc1ccccc1-c1nc(C(=O)Nc2cccc(C(=O)O)c2)c(CCC23CC4CC(CC(C4)C2)C3)[nH]1 [Example 57, 3-{[5-(2-Adamantan-1-yl-ethyl)-2-o-tolyl-1H-imidazole-4-carbonyl]-amino}-benzoic Acid] | 120 | 58.9 |
| O=C(O)c1cccc(NC(=O)c2nc(-c3cccc(Cl)c3Cl)[nH]c2CCC23CC4CC(CC(C4)C2)C3)c1 [Example 69, 3-{[5-(2-Adamantan-1-yl-ethyl)-2-(2,3-dichloro-phenyl)-1H-imidazole-4-carbonyl]-amino}-benzoic Acid] | 398 | 89.1 |
| Cc1cccc(C)c1-c1nc(C(=O)Nc2cccc(C(=O)O)c2)c(CCC23CC4CC(CC(C4)C2)C3)[nH]1 [Example 65, 3-{[5-(2-Adamantan-1-yl-ethyl)-2-(2,6-dimethyl-phenyl)-1H-imidazole-4-carbonyl]-amino}-benzoic Acid] | 56.2 | 100 |
| Cc1ccc(-c2nc(C(=O)Nc3ccc(C)c(C(=O)O)c3)c(CCC34CC5CC(CC(C5)C3)C4)[nH]2)c(C)c1 [Example 151, 5-{[5-(2-Adamantan-1-yl-ethyl)-2-(2,4-dimethyl-phenyl)-1H-imidazole-4-carbonyl]-amino}-2-methyl-benzoic Acid] | 6.31 | 21.9 |
| O=C(O)c1cccc(NC(=O)c2[nH]c(-c3ccccc3)nc2CCC23CC4CC(CC(C4)C2)C3)c1 [Example 47, 3-{[5-(2-Adamantan-1-yl-ethyl)-2-phenyl-1H-imidazole-4-carbonyl]-amino}-benzoic Acid] | 251 | 234 |
| CCC(CC)c1nc(C(=O)Nc2cccc(C(=O)O)c2)c(CCC23CC4CC(CC(C4)C2)C3)[nH]1 [Example 112, 3-{[5-(2-Adamantan-1-yl-ethyl)-2-(1-ethyl-propyl)-1H-imidazole-4-carbonyl]-amino}-benzoic Acid] | 45.7 | 9.33 |
